Measured values published in patent US8399712B2 (priority 2010, dated 2013).

Experiments:
[1] = Relative humidity stability, saturated salt solutions at ambient temperature, XRPD; assay type: physicochemical; details: for Dissociation by XRPD: 75, 94, or 98% RH after four weeks
Text: Upon completion of the duration allowed, the samples were immediately analyzed by XRPD.

[2] = Slurrying in water, resulting solid form; assay type: physicochemical; details: for Behaviour upon slurrying in water: three days
hyperglycemic rats = details: cited from earlier work
[3] = literature; cited from earlier work
[4] = literature (Lopez-Nicolas 2009); cited from earlier work
cancer cell lines = details: in vitro; cited from earlier work
[5] = assay type: physicochemical; details: slurrying in water at ambient, after 5 minutes
[6] = Attempted intrinsic dissolution of cocrystal 3 in 900 mL water; assay type: physicochemical; details: 900 mL water at ambient conditions, after 30 minutes
Method: Intrinsic dissolution in 900 mL water at ambient conditions was also attempted. […] Therefore, a concentration vs. time and intrinsic dissolution rate value were unobtainable at these conditions.

In the case of Cn1c(=O)c2c(ncn2C)n(C)c1=O [caffeine, reference compound], the “Results (form by XRPD)” value ([1]; 75% RH, 1 week) is reported as “caffeine anhydrous”, the “Results (form by XRPD)” value ([1]; 75% RH, 4 weeks) is reported as “caffeine anhydrous” and the “Results (form by XRPD)” value ([1]; 75% RH, 1 day) is reported as “caffeine anhydrous”. The “Results (form by XRPD)” value ([1]; 75% RH, 3 days) was “caffeine anhydrous”, the “Conversion to hydrate” value ([1]; 75% RH, up to four weeks) was “does not display signs of conversion” and the “Conversion to hydrate” value ([1]; 94% RH) was “between one and three days at 94% RH partial conversion”. For the same molecule, the “Results (form by XRPD)” value ([1]; 94% RH, 1 week (7 days)) was “caffeine hydrate”, the “Results (form by XRPD)” value ([1]; 94% RH, 4 weeks) was “caffeine hydrate” and the “Results (form by XRPD)” value ([1]; 94% RH, 1 day) was “caffeine anhydrous”. The “Results (form by XRPD)” value ([1]; 94% RH, 3 days) was “caffeine anhydrous/caffeine hydrate”, the “Conversion to hydrate” value ([1]; 98% RH) was “converts to caffeine hydrate in less than one day” and the “Results (form by XRPD)” value ([1]; 98% RH, 1 week) was “caffeine hydrate”. The “Results (form by XRPD)” value ([1]; 98% RH, 4 weeks) was “caffeine hydrate”, the “Results (form by XRPD)” value ([1]; 98% RH, 1 day) was “caffeine hydrate” and the “Results (form by XRPD)” value ([1]; 98% RH, 3 days) was “caffeine hydrate”.

With COc1cc(/C=C/c2ccc(O)cc2)cc(OC)c1.Cn1c(=O)c2c(ncn2C)n(C)c1=O [cocrystal 1 (Form I), pterostilbene:caffeine] the “Results (form after stress)” value ([2]; slurry, 2 days) was “cocrystal 1 (Form I), no caffeine hydrate”, the “Behaviour upon slurrying in water” value [2] was “precipitation of pterostilbene” and the “Results (form by XRPD)” value ([1]; 75% RH, 1 week) was “cocrystal 1 (Form I), no caffeine hydrate”. The “Results (form by XRPD)” value ([1]; 75% RH, 1 week, additional stress at 98% RH) was “cocrystal 1 (Form I), no caffeine hydrate”, the “Results (form by XRPD)” value ([1]; 75% RH, 4 weeks) was “cocrystal 1 (Form I), no caffeine hydrate” and the “Results (form by XRPD)” value ([1]; 75% RH, 1 day) was “cocrystal 1 (Form I), no caffeine hydrate”. The “Results (form by XRPD)” value ([1]; 75% RH, 1 day, additional stress at 98% RH) was “cocrystal 1 (Form I), no caffeine hydrate”, the “Results (form by XRPD)” value ([1]; 75% RH, 3 days) was “cocrystal 1 (Form I), no caffeine hydrate” and the “Results (form by XRPD)” value ([1]; 94% RH, 1 week (7 days)) was “cocrystal 1 (Form I), no caffeine hydrate”. The “Results (form by XRPD)” value ([1]; 94% RH, 4 weeks) was “cocrystal 1 (Form I), no caffeine hydrate”, the “Results (form by XRPD)” value ([1]; 94% RH, 1 day) was “cocrystal 1 (Form I), no caffeine hydrate” and the “Results (form by XRPD)” value ([1]; 94% RH, 3 days) was “cocrystal 1 (Form I), no caffeine hydrate”. The “Results (form by XRPD)” value ([1]; 94% RH, 7 days, additional stress at 98% RH, 4 weeks) was “cocrystal 1 (Form I), no caffeine hydrate”.

In the case of COc1cc(/C=C/c2ccc(O)cc2)cc(OC)c1.Cn1c(=O)c2c(ncn2C)n(C)c1=O [cocrystal 1, pterostilbene:caffeine], the “Dissociation by XRPD” value [1] is reported as “no dissociation”.

In the case of CN(C)C(=N)N=C(N)N [metformin], the “Decrease of plasma glucose levels” value (hyperglycemic rats) is listed as 48%.

In the case of COc1cc(/C=C/c2ccc(O)cc2)cc(OC)c1 [pterostilbene, trans-3,5-dimethoxy-4′-hydroxystilbene], the Bioavailability [3] is given as “poor bioavailability”, the Solubility in water [4] is given as “poor solubility in water” and the “Cytotoxic activity against cancer cell lines” value (cancer cell lines) is given as “demonstrated cytotoxic activity”.

In the case of “pterostilbene:carbamazepine [cocrystal 2]”, the “Behaviour upon slurrying in water” value [2] is reported as “stable”, the “Results (form by XRPD)” value ([1]; 75% RH, 1 week) is reported as “cocrystal 2, no carbamazepine dihydrate” and the “Results (form by XRPD)” value ([1]; 75% RH, 4 weeks) is reported as “cocrystal 2, no carbamazepine dihydrate”. For the same molecule, the “Results (form by XRPD)” value ([1]; 75% RH, 1 day) was “cocrystal 2, no carbamazepine dihydrate”, the “Results (form by XRPD)” value ([1]; 75% RH, 3 days) was “cocrystal 2, no carbamazepine dihydrate” and the “Results (form by XRPD)” value ([1]; 94% RH, 1 week (7 days)) was “cocrystal 2, no carbamazepine dihydrate”. The “Results (form by XRPD)” value ([1]; 94% RH, 4 weeks) was “cocrystal 2, no carbamazepine dihydrate”, the “Results (form by XRPD)” value ([1]; 94% RH, 1 day) was “cocrystal 2, no carbamazepine dihydrate” and the “Results (form by XRPD)” value ([1]; 94% RH, 3 days) was “cocrystal 2, no carbamazepine dihydrate”. The “Results (form by XRPD)” value ([1]; 98% RH, 1 week) was “cocrystal 2, no carbamazepine dihydrate”, the “Results (form by XRPD)” value ([1]; 98% RH, 4 weeks) was “cocrystal 2, no carbamazepine dihydrate” and the “Results (form by XRPD)” value ([1]; 98% RH, 1 day) was “cocrystal 2, no carbamazepine dihydrate”. The “Results (form by XRPD)” value ([1]; 98% RH, 3 days) was “cocrystal 2, no carbamazepine dihydrate”.

In the case of “pterostilbene:glutaric acid [cocrystal 3]”, the “XRPD result of attempted powder dissolution” value [5] is reported as “crystalline pterostilbene”, the “Dissociation by XRPD” value [1] is reported as “no dissociation” and the “XRPD result of attempted intrinsic dissolution” value [6] is reported as “crystalline pterostilbene”.
